# Data published in patent publication US8548786B2, “Neuronal avalanche assay” (priority 2005, dated 2013).
# Key:
# [1] = test system: acute somatosensory cortex slices; test: Neuronal avalanche induction in acute somatosensory cortex slices; assay type: cell-based, rat; details: 3 μM SKF38393 + 3 μM NMDA
# [2] = test system: acute slices of rat medial prefrontal cortex (mPFC); test: Neuronal avalanche (NAS) assay, microelectrode array LFP recording in acute mPFC slices;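 further: 60-electrode array recordings, low-pass filtered at 200 Hz and sampled at 1 kHz, nLFPs detected below −3 SD of electrode noise, avalanches as runs of active bins between silent bins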
# Procedure: Continuous extracellular signals v(t) can be recorded between 0.1 Hz and 3000 Hz, low-pass filtered at 200 Hz (Butterfly-filter, Multichannel Systems), digitised at a rate of 1 kHz (Δt=1 ms) and stored. For each electrode k (k=[1, nelec], nelec=60), the electrode noise of v(t) can be estimated by calculating the mean and standard deviation (SD) of v(t) from the total duration of the recording, Ttot, which can range, for example, between 40-60 min. […] Negative LFP peaks (nLFPs) at electrode k can be detected by negative threshold crossing at −3 SD of electrode noise and can be characterized by the time and absolute amplitude of the negative LFP peak, A^k(ti), before v(t) returned to threshold. More precisely, at a given temporal resolution Δt, nLFPs at electrode k can be represented by a vector of length nmax, where nmax is an integer value for which Ttot=nmax·Δt. This vector can contain zeros, except for positions ti=i·Δt, iε[1, . . . , nmax,] with values A^k(ti) in μV.
# A neuronal avalanche is a sequence of consecutive time bins of width Δt with at least one nLFP, which is preceded and terminated by at least one time bin with no activity (FIG. 3A). The absence of activity for a period of Δt thus indicates the end of an avalanche. If the decision of whether an avalanche has ended is made too early (Δt too short), avalanches will be terminated prematurely; if the Δt chosen is too long, avalanches will be falsely concatenated. If avalanches did simply propagate like a wave, an approximation for Δt (Δtavg) could be obtained by averaging the time between one nLFP at one electrode and the next nLFP at neighbouring electrodes only. Because nLFPs in avalanches occur in irregular patterns across electrodes on the array, a pair wise approximation can be used in order to assess the average time that is required for nLFPs to propagate between electrodes.
# In order to calculate Δtavg, the distribution of time intervals T for successive nLFPs on the array can be obtained. Starting with the first nLFP, e.g. A^k(ti) on electrode k at time ti, the next occurrence of an nLFP on the array can be searched for, e.g. A^l(tj) on electrode l at time tj, and calculated the time interval Tm-Δt^k,l, where m=(tj−ti)/Δt. This process can be repeated for all occurrences of nLFPs on electrode k and for all electrodes. The resulting values can be combined into one density distribution P(TmΔt), which captures how often successive nLFPs occurred with a particular delay m·Δt on the array irrespective of their spatial location. Consequently, the average value of T provides an approximation for Δtavg, the average time to wait before making a decision whether an nLFP propagated on the array. However, this interval distribution is highly skewed, particularly when one compares the last nLFP with the first nLFP in successive avalanches that are separated by long times. In order to exclude time intervals from successive nLFPs that are barely correlated, a cut-off time τmax can be calculated for which the average crosscorrelation function (ccf) for pair wise electrode comparisons Rccf(τ) had decayed to negligible values. The ccf between electrodes k, l (Rccf^k,l(τ)) can be calculated as
# Because the exemplary maximal sampling rate was 1 kHz, the actual Δt^avg to calculate avalanches can be taken as the nearest multiple of Δt=1 ms. In short, after Δtavg was calculated for a particular network and experimental condition, the extracellular signals v(t) can be re-sampled at the new temporal resolution of Δtavg. Time and amplitude of nLFP peaks can be extracted as A^k(ti), where ti=i·Δtavg, iε[1, n′max] and Ttot=n′max·Δtavg. Avalanches can be determined on the downsampled data set at bin width Δtavg.
# Avalanche sizes can be calculated in two different ways (see also FIG. 3A).
smiles,measurement,setting,value
Cl.Oc1cc2c(cc1O)C(c1ccccc1)CNCC2 (racemic) [SKF38393],avalanche induction and layer localisation,[1],induced neuronal avalanches primarily in superficial layers
same,average nLFP peak amplitude,[2]; 3 μM SKF38393 + 3 μM NMDA,6.62±0.01 mV
same,Δtavg,[2]; 3 μM SKF38393 + 3 μM NMDA,3.3±0.2
same,total activity at slope α ~−1.5 compared to dopamine,"[2]; 3 μM SKF38393 + 3 μM NMDA vs 30 μM dopamine, p=0.007",significantly reduced level of total activity compared to dopamine
same,slope αLFP after rescue by added NMDA,"[2]; 3 μM SKF38393 alone first, then 3 μM NMDA added",−1.55±0.07
same,induction of nLFPs or avalanches,"[2]; 3 μM SKF38393 alone, without NMDA",did not induce nLFPs or avalanches
same,slope α of avalanche size distribution,"[2]; SKF38393 higher or lower than 3 μM (0.3-300 μM range), + 3 μM NMDA",< −1.5
